Measurements from patent publication US8772504B2, “Substituted benzoxazole, benzimidazole, oxazolopyridine and imidazopyridine derivatives as gamma secretase modulators” (Janssen Pharmaceuticals, Inc., priority 2009, dated 2014).
pIC50: −log10 of the molar value.

What was measured:
Format in all cases: cell-based
Aβ42 [1] = assay: Screening for γ-secretase-modulating activity, Method 2: Aβ42 Alphalisa on SKNBE2 cell supernatant; details: Method 2, Table 3c, SKNBE2 cells carrying APP 695 wild type, overnight incubation
Protocol: (§1) Screening was carried out using SKNBE2 cells carrying the APP 695—wild type, grown in Dulbecco's Modified Eagle's Medium/Nutrient mixture F-12 (DMEM/NUT-mix F-12) (HAM) provided by Invitrogen (cat no. 10371-029) containing 5% Serum/Fe supplemented with 1% non-essential amino acids, 1-glutamine 2 mM, Hepes 15 mM, penicillin 50 U/ml (units/ml) en streptomycin 50 μg/ml. Cells were grown to near confluency.
(§2) The screening was performed using a modification of the assay as described in Citron et al (1997) Nature Medicine 3: 67. Briefly, cells were plated in a 384-well plate at 10^4 cells/well in Ultraculture (Lonza, BE12-725F) supplemented with 1% glutamine (Invitrogen, 25030-024), 1% non-essential amino acid (NEAA), penicillin 50 U/ml en streptomycin 50 μg/ml in the presence of test compound at different test concentrations. The cell/compound mixture was incubated overnight at 37° C., 5% CO2. The next day the media were assayed by two sandwich immuno-assays, for Aβ42 and Aβtotal.
(§3) Aβtotal and Aβ42 concentrations were quantified in the cell supernatant using the Aphalisa technology (Perkin Elmer). Alphalisa is a sandwich assay using biotinylated antibody attached to streptavidin coated donorbeads and antibody conjugated to acceptor beads. In the presence of antigen, the beads come into close proximity. The excitation of the donor beads provokes the release of singlet oxygen molecules that trigger a cascade of energy transfer in the acceptor beads, resulting in light emission. To quantify the amount of Aβ42 in the cell supernatant, monoclonal antibody specific to the C-terminus of Aβ42 (JRF/cAβ42/26) was coupled to the receptor beads and biotinylated antibody specific to the N-terminus of Aβ (JRF/AβN/25) was used to react with the donor beads. To quantify the amount of Aβtotal in the cell supernatant, monoclonal antibody specific to the N-terminus of Aβ (JRF/AβN/25) was coupled to the receptor beads and biotinylated antibody specific to the mid region of Aβ (biotinylated 4G8) was used to react with the donor beads.
(§4) To obtain the values reported in Table 3c, the data were calculated as percentage of the maximum amount of amyloid Beta 42 measured in the absence of the test compound. The sigmoidal dose response curves were analyzed using non-linear regression analysis with percentage of the control plotted against the log concentration of the compound. A 4-parameter equation was used to determine the IC50.

Aβtotal [2] = assay: Screening for γ-secretase-modulating activity, Method 2: Aβtotal Alphalisa on SKNBE2 cell supernatant; details: Method 2, Table 3c, SKNBE2 cells carrying APP 695 wild type, overnight incubation
Protocol: as §1, §2, §3, §4

Aβ42 [3] = assay: Screening for γ-secretase-modulating activity, Method 1: Aβ42 sandwich ELISA on SKNBE2 cell media; details: SKNBE2 cells carrying APP 695 wild type
Protocol: as §1, with “Gibco” for “Invitrogen”, “31330-38)” for “10371-029)”, “acids.” for “acids, 1-glutamine 2 mM, Hepes 15 mM, penicillin 50 U/ml (units/ml) en streptomycin 50 μg/ml.”
(§5) The screening was performed using the assay as described in Citron et al (1997) Nature Medicine 3: 67. Briefly, cells were plated in a 96-well plate at about 10^5 cells/ml one day prior to addition of compounds. Compounds were added to the cells in Ultraculture (Lonza, BE12-725F) supplemented with 1% glutamine (Invitrogen, 25030-024) for 18 hours. The media were assayed by two sandwich ELISAs, for Aβ42 and Aβtotal. Toxicity of the compounds was assayed by WST-1 cell proliferation reagent (Roche, 1 644 807) according to the manufacturer's protocol.
To quantify the amount of Aβ42 in the cell supernatant, commercially available Enzyme-Linked-Immunosorbent-Assay (ELISA) kits were used (Innotest® β-Amyloid(1-42), Innogenetics N.V., Ghent, Belgium). The Aβ42 ELISA was performed essentially according to the manufacturer's protocol. Briefly, the standards (dilutions of synthetic Aβ1-42) were prepared in polypropylene Eppendorf with final concentrations of 8000 down to 3.9 pg/ml (1/2 dilution step). Samples, standards and blanks (100 μl) were added to the anti-Aβ42-coated plate supplied with the kit (the capture antibody selectively recognizes the C-terminal end of the antigen). The plate was allowed to incubate 3 h at 25° C. in order to allow formation of the antibody-amyloid complex. Following this incubation and subsequent wash steps a selective anti-Aβ-antibody conjugate (biotinylated 3D6) was added and incubated for a minimum of 1 hour in order to allow formation of the antibody-Amyloid-antibody-complex. After incubation and appropriate wash steps, a Streptavidine-Peroxidase-Conjugate was added, followed 30 minutes later by an addition of 3,3′,5,5′-tetramethylbenzidine (TMB)/peroxide mixture, resulting in the conversion of the substrate into a coloured product. This reaction was stopped by the addition of sulfuric acid (0.9 N) and the colour intensity was measured by means of photometry with an ELISA-reader with a 450 nm filter.
(§6) To obtain the values reported in Table 3a, the sigmoidal dose response curves were analysed by computerised curve-fitting, with percent of inhibition plotted against compound concentration. A 4-parameter equation (model 205) in XLfit was used to determine the IC50. The top and the bottom of the curve were fixed to 100 and 0, respectively, and the hill slope was fixed to 1. The IC50 represents the concentration of a compound that is required for inhibiting a biological effect by 50% (Here, it is the concentration where Aβ peptide level is reduced by 50%).
as §4, with “3b,” for “3c,”, “IC50. The values reported in Table 3b are averaged IC50 values.” for “IC50.”

Aβtotal [4] = assay: Screening for γ-secretase-modulating activity, Method 1: Aβtotal sandwich ELISA on SKNBE2 cell media; details: SKNBE2 cells carrying APP 695 wild type
Protocol: as §1, with “Gibco” for “Invitrogen”, “31330-38)” for “10371-029)”, “acids.” for “acids, 1-glutamine 2 mM, Hepes 15 mM, penicillin 50 U/ml (units/ml) en streptomycin 50 μg/ml.”
as §5
To quantify the amount of Aβtotal in the cell supernatant, samples and standards were added to a 6E10-coated plate. The plate was allowed to incubate overnight at 4° C. in order to allow formation of the antibody-amyloid complex. Following this incubation and subsequent wash steps a selective anti-Aβ-antibody conjugate (biotinylated 4G8) was added and incubated for a minimum of 1 hour in order to allow formation of the antibody-Amyloid-antibody-complex. After incubation and appropriate wash steps, a Streptavidine-Peroxidase-Conjugate was added, followed 30 minutes later by an addition of Quanta Blu fluorogenic peroxidase substrate according to the manufacturer's instructions (Pierce Corp., Rockford, Ill.).
as §6
as §4, with “3b,” for “3c,”, “IC50. The values reported in Table 3b are averaged IC50 values.” for “IC50.”

[5] = Table 3a, 18 hours, XLfit, top/bottom fixed to 100 and 0, hill slope 1
[6] = Table 3b, non-linear regression of % of control, averaged IC50 values
[7] = Homo sapiens, Table 3b, non-linear regression of % of control, averaged IC50 values

| Compound | pIC50 (Aβ42 [1]) | pIC50 (Aβtotal [2]) | pIC50 (Aβ42 [3]; [6]) | pIC50 (Aβtotal [4]; [6]) | other results |
| --- | --- | --- | --- | --- | --- |
| Cc1ncnn1-c1ccc(Nc2cccc3c2nc(-c2ccc(F)cc2)n3C(C)C)cc1 [Compound 88] | – | – | 7.14 | < 5.52 | pIC50 (Aβ42 [3]; [5]): 7.24; pIC50 (Aβtotal [4]; [5]): < 5.52 |
| COc1cc(Nc2nccc3c2nc(-c2ccc(F)cc2F)n3C)ccc1-n1cnc(C)n1 [Compound 98] | – | – | 6.48 | < 5.00 | pIC50 (Aβ42 [3]; [5]): 6.45; pIC50 (Aβtotal [4]; [5]): < 5.52 |
| Cc1cc2c(nc(-c3ccc(F)cc3)n2C)c(Nc2ccc(-n3ncnc3C)c(F)c2)n1 [Compound 100] | – | – | 6.18 | < 5.00 | pIC50 (Aβ42 [3]; [5]): 6.19; pIC50 (Aβtotal [4]; [5]): < 5.52 |
| COc1cc(Nc2cccc3c2nc(CC(C)C)n3CC(F)(F)F)ccc1-n1cnc(C)n1 [Compound 105] | – | – | 6.89 | 5.60 | pIC50 (Aβ42 [3]; [5]): 6.89; pIC50 (Aβtotal [4]; [5]): 5.55 |
| C=C(C)c1cc(Nc2ccc(-n3cnc(C)n3)c(OC)c2)c2nc(-c3ccc(F)cc3)n(C)c2n1 [Compound 109] | – | – | – | – | pIC50 (Aβ42 [3]; [7]): 7.49; pIC50 (Aβtotal [4]; [7]): < 5.52 |
| Cc1cn(-c2ccc(Nc3cc(C)nc4c3nc(-c3ccc(F)cc3)n4C)cc2F)cn1 [Compound 112] | – | – | – | – | pIC50 (Aβ42 [1]; Homo sapiens): 7.72; pIC50 (Aβtotal [2]; Homo sapiens): < 5.00 |
| COc1cc(Nc2cc(C)nc3c2nc(-c2ccc(F)cc2)n3C)ccc1-n1cnc(C)n1 [Compound 113] | – | – | – | – | pIC50 (Aβ42 [1]; Homo sapiens): 7.46; pIC50 (Aβtotal [2]; Homo sapiens): < 5.00 |
| COCc1cn(-c2ccc(Nc3cccc4c3nc(-c3ccc(F)cc3)n4C)cc2OC)cn1 [Compound 119] | – | – | – | – | pIC50 (Aβ42 [1]; Homo sapiens): 7.19; pIC50 (Aβtotal [2]; Homo sapiens): < 5.00 |
| COc1cc(Nc2cccc3c2nc(-c2cccc(Cl)c2)n3C(C)C)ccc1-n1cnc(C)n1 [Compound 126] | 7.72 | < 5.00 | – | – | – |
| CCn1c(-c2cc(F)ccc2F)nc2c(Nc3ccc(-n4cnc(C)n4)c(OC)c3)cc(F)cc21 [Compound 127] | – | – | 7.25 | < 5.52 | – |
| COc1cc(Nc2cc(F)cc3c2nc(-c2ccccc2Cl)n3C)ccc1-n1cnc(C)n1 [Compound 128] | – | – | 7.96 | < 5.52 | – |
| COc1nc(Nc2cccc3c2nc(-c2cc(F)cc(C(F)(F)F)c2)n3C)ccc1-n1cnc(C)c1 [Compound 132] | 8.30 | 5.34 | – | – | – |
| COc1nc(Nc2cccc3c2nc(-c2ccc(F)c(Br)c2)n3C)ccc1-n1cnc(C)c1 [Compound 133] | – | – | – | – | pIC50 (Aβ42 [1]; Homo sapiens): 8.05; pIC50 (Aβtotal [2]; Homo sapiens): < 5.00 |
| COc1cc(-c2nc3c(Nc4ccc(-n5cnc(C)n5)c(OC)c4)nc(C)cc3n2C)ccc1Cl [Compound 135] | 8.00 | < 5.00 | – | – | – |
| Cc1cn(-c2ccc(Nc3nc(C)cc4c3nc(-c3ccccc3Cl)n4C)cc2F)cn1 [Compound 139] | 7.46 | < 5.00 | – | – | – |
| COc1cc(-c2nc3c(Nc4ccc(-n5cnc(C)c5)c(OC)n4)cc(F)cc3n2C)ccc1Cl [Compound 140] | 8.40 | < 5.00 | – | – | – |
| Cc1cn(-c2ccc(Nc3nc(C)cc4c3nc(-c3cccnc3)n4C)cc2F)cn1 [Compound 143] | 6.26 | < 5.00 | – | – | – |
| COc1ccc(-c2nc3c(Nc4ccc(-n5cnc(C)c5)c(F)c4)nc(C)cc3n2C)c(F)c1 [Compound 144] | 6.84 | < 5.00 | – | – | – |
| COc1cc(Nc2nccc3c2nc(-c2ccccc2Cl)n3C)ccc1-n1cnc(C)n1 [Compound 145] | – | – | 6.68 | < 5.52 | – |
| COc1cc(Nc2nc(C)cc3c2nc(-c2ccccc2Cl)n3C)ccc1-n1cnc(C)n1 [Compound 147] | 7.36 | 5.10 | – | – | – |
| COc1cc(Nc2nc(Cl)cc3c2nc(-c2ccc(F)cc2)n3C)ccc1-n1cnc(C)n1 [Compound 156] | – | – | 7.24 | < 5.52 | – |

Further lines, with some results ahead:

| pIC50 (Aβ42 [1]) | pIC50 (Aβtotal [2]) | pIC50 (Aβ42 [3]; [6]) | pIC50 (Aβtotal [4]; [6]) | Compound | other results |
| --- | --- | --- | --- | --- | --- |
| 6.43 | < 5.00 | – | – | COc1cc(Nc2cccc3c2nc(C(C)c2ccc(Cl)cc2)n3C)ccc1-n1cnc(C)n1 (racemic) [Compound 122] | – |
| – | – | 7.68 | < 6.00 | COc1cc(Nc2cccc3c2nc(Cc2ccc(F)cc2)n3C)ccc1-n1cnc(C)c1 [Compound 81] | pIC50 (Aβ42 [3]; [5]): 7.68; pIC50 (Aβtotal [4]; [5]): < 6.00 |
| – | – | 7.35 | < 5.52 | COc1cc(-c2nc3c(Nc4ccc(-n5cncn5)c(F)c4)cccc3n2C)ccc1Cl [Compound 83] | pIC50 (Aβ42 [3]; [5]): 7.33; pIC50 (Aβtotal [4]; [5]): < 5.52 |
| – | – | 6.85 | < 5.52 | COc1cc(Nc2cccc3c2nc(-c2cccc(OC)c2Cl)n3C)ccc1-n1cnc(C)n1 [Compound 84] | pIC50 (Aβ42 [3]; [5]): 6.85; pIC50 (Aβtotal [4]; [5]): < 5.52 |
| – | – | 7.41 | < 5.30 | COc1cc(Nc2nccc3[nH]c(-c4ccc(F)cc4)nc23)ccc1-n1cnc(C)c1 [Compound 90] | pIC50 (Aβ42 [3]; [5]): 7.41; pIC50 (Aβtotal [4]; [5]): < 6.00 |
| – | – | 6.37 | < 5.00 | COc1cc(Nc2cccc3c2nc(COc2ccccc2)n3C)ccc1-n1ncnc1C [Compound 99] | pIC50 (Aβ42 [3]; [5]): 6.36; pIC50 (Aβtotal [4]; [5]): < 5.52 |
| – | – | 7.16 | < 5.52 | COc1cc(Nc2cccc3c2nc(-c2ccc(F)cc2)n3C)ccc1-n1cnc(CO)c1 [Compound 118] | – |
| 6.84 | < 5.00 | – | – | COc1cc(Nc2cccc3c2nc(C2(c4ccc(Cl)cc4)CC2)n3C)ccc1-n1cnc(C)n1 [Compound 123] | – |
| 5.41 | < 5.00 | – | – | Cc1cn(-c2ccc(Nc3cccc4c3nc(-c3ccc(=O)n(C)c3)n4C)cc2F)cn1 [Compound 124] | – |
| 7.59 | < 5.00 | – | – | Cc1cn(-c2ccc(Nc3cc(F)cc4c3nc(-c3ccc(F)cc3)n4C(C)C)cc2F)cn1 [Compound 125] | – |
| 8.30 | 5.16 | – | – | COc1cc(-c2nc3c(Nc4ccc(-n5cnc(C)c5)c(OC)n4)cccc3n2C)ccc1Cl [Compound 134] | – |
| 6.90 | < 5.00 | – | – | COc1ccccc1-c1nc2c(Nc3ccc(-n4cnc(C)c4)c(F)c3)nc(C)cc2n1C [Compound 138] | – |
| 6.46 | < 5.00 | – | – | COc1nc(Nc2cccc3c2nc(-c2ccc(=O)n(C)c2)n3C)ccc1-n1cnc(C)c1 [Compound 146] | – |
